Columns and labels:
Experiment in all cases: Post-emergence application in field trials, herbicidal activity (damage scale 0 to 100%)
Format in all cases: in vivo
[1] = tested on: Amaranthus retroflexus (AMARE); details: 21 DAT, stage 31-49, height 10-12 cm
How it was run: (§1)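 Field sites with natural or seeded weeds were sprayed post-emergence via flat fan nozzles in 200 l/ha water plus 0.25 v/v % MSO adjuvant, solo or mixed with pyroxasulfone and other partners. Damage was scored 0–100% versus untreated plants at indicated DAT. Colby expected values were used to judge synergy.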

Hordeum vulgare (HORVW) = details: stage 23-29, height 20-25 cm
How it was run: as §1

[2] = tested on: Setaria verticillata (SETVE); details: stage 21-23, height 8-16 cm
How it was run: as §1

Zea mays (ZEAMX) = tested on: Zea mays (ZEAMX)
How it was run: as §1

[3] = tested on: Lolium multiflorum (LOLMU); details: stage 22-25, height 20-25 cm
How it was run: as §1

[4] = tested on: Digitaria sanguinalis (DIGSA); details: stage 22, height 10-15 cm
How it was run: as §1

[5] = 7 DAT, g ai/ha A-1 12.5, B 70, C-12 252
[6] = 7 DAT, g ai/ha A-1 18, B 70, C-12 252
[7] = 7 DAT, g ai/ha A-1 18, B 90, C-12 252
[8] = 21 DAT, g ai/ha A-1 12.5, B 70, C-12 252
[9] = 21 DAT, g ai/ha A-1 18, B 70, C-12 252
[10] = 21 DAT, g ai/ha A-1 18, B 90, C-12 252
[11] = 28 DAT, g ai/ha A-1 12.5, B 70, C-12 252
[12] = 28 DAT, g ai/ha A-1 18, B 70, C-12 252
[13] = 28 DAT, g ai/ha A-1 18, B 90, C-12 252
[14] = 42 DAT, g ai/ha A-1 18, B 90, C-12 252
[15] = Table 8.1, 7 DAT, g ai/ha A-1 18, B 70, C-12 1066

Compound: CP(=O)(O)CC[C@H](N)C(=O)O.N [C-12, glufosinate-P-ammonium]
- % Herbicidal activity ([1]; g ai/ha A-1 18, B 70, C-12 252): 90%
- % Herbicidal activity ([1]; g ai/ha A-1 18, B 90, C-12 252): 90%
- % Herbicidal activity (Hordeum vulgare (HORVW); [5]): 40%
- % Herbicidal activity (Hordeum vulgare (HORVW); [6]): 40%
- % Herbicidal activity (Hordeum vulgare (HORVW); [7]): 40%
- % Herbicidal activity (Hordeum vulgare (HORVW); [8]): 30%
- % Herbicidal activity (Hordeum vulgare (HORVW); [9]): 30%
- % Herbicidal activity (Hordeum vulgare (HORVW); [10]): 30%
- % Herbicidal activity (Hordeum vulgare (HORVW); [11]): 30%
- % Herbicidal activity (Hordeum vulgare (HORVW); [12]): 30%
- % Herbicidal activity (Hordeum vulgare (HORVW); [13]): 30%
- % Herbicidal activity [2, 6]: 65%
- % Herbicidal activity [2, 7]: 65%
- % Herbicidal activity [2, 10]: 65%
- % Herbicidal activity ([2]; 42 DAT, g ai/ha A-1 12.5, B 70, C-12 252): 35%
- % Herbicidal activity [2, 14]: 35%
- % Herbicidal activity [2, 15]: 25%
- % Herbicidal activity ([2]; Table 8.2, 21 DAT, g ai/ha A-1 12.5, B 70, C-12 1066): 25%
- % Herbicidal activity ([2]; Table 8.4, 42 DAT, g ai/ha A-1 12.5, B 70, C-12 1066): 15%
- % Herbicidal activity (Zea mays (ZEAMX); 7 DAT, stage 15-16, height 27-33 cm, g ai/ha A-1 12.5, B 70, C-12 252): 70%
- % Herbicidal activity (Zea mays (ZEAMX); 7 DAT, stage 15-16, height 27-33 cm, g ai/ha A-1 18, B 70, C-12 252): 70%
- % Herbicidal activity (Zea mays (ZEAMX); 7 DAT, stage 15-16, height 27-33 cm, g ai/ha A-1 18, B 90, C-12 252): 70%
- % Herbicidal activity (Zea mays (ZEAMX); 21 DAT, stage 15-16, height 27-33 cm, g ai/ha A-1 12.5, B 70, C-12 252): 60%
- % Herbicidal activity (Zea mays (ZEAMX); 21 DAT, stage 15-16, height 27-33 cm, g ai/ha A-1 18, B 70, C-12 252): 60%
- % Herbicidal activity (Zea mays (ZEAMX); 21 DAT, stage 15-16, height 27-33 cm, g ai/ha A-1 18, B 90, C-12 252): 60%
- % Herbicidal activity (Zea mays (ZEAMX); 42 DAT, stage 15-16, height 27-33 cm, g ai/ha A-1 12.5, B 70, C-12 252): 45%
- % Herbicidal activity (Zea mays (ZEAMX); 42 DAT, stage 15-16, height 27-33 cm, g ai/ha A-1 18, B 70, C-12 252): 45%
- % Herbicidal activity (Zea mays (ZEAMX); 42 DAT, stage 15-16, height 27-33 cm, g ai/ha A-1 18, B 90, C-12 252): 45%
- % Herbicidal activity (Zea mays (ZEAMX); Table 8.1, 7 DAT, stage 15-16, height 50-60 cm, g ai/ha A-1 18, B 70, C-12 1066): 7%
- % Herbicidal activity (Zea mays (ZEAMX); Table 8.1, 7 DAT, stage 15-16, height 50-60 cm, g ai/ha A-1 18, B 90, C-12 1066): 7%
- % Herbicidal activity [3, 5]: 50%
- % Herbicidal activity [3, 6]: 50%
- % Herbicidal activity [3, 7]: 50%
- % Herbicidal activity [3, 8]: 30%
- % Herbicidal activity [3, 9]: 30%
- % Herbicidal activity [3, 10]: 30%
- % Herbicidal activity [3, 11]: 30%
- % Herbicidal activity [3, 12]: 30%
- % Herbicidal activity [3, 13]: 30%
- % Herbicidal activity [4, 6]: 70%
- % Herbicidal activity [4, 7]: 70%
- % Herbicidal activity [4, 9]: 70%
- % Herbicidal activity [4, 10]: 70%
- % Herbicidal activity ([4]; 42 DAT, g ai/ha A-1 18, B 70, C-12 252): 55%
- % Herbicidal activity [4, 14]: 55%
- % Herbicidal activity [4, 15]: 20%
- % Herbicidal activity ([4]; Table 8.2, 21 DAT, g ai/ha A-1 18, B 70, C-12 1066): 20%
- % Herbicidal activity ([4]; Table 8.4, 42 DAT, g ai/ha A-1 18, B 70, C-12 1066): 10%
